{"source": "patent US20200061090A1", "about": "“AGENT FOR PREVENTING WORSENING OF INSULIN RESISTANCE OR AMELIORATING INSULIN RESISTANCE” (B FOOD SCIENCE CO., LTD., priority 2017, published 2020)", "key": {"SD rats [1]": {"system": "SD rats", "assay": "Effect of 1-kestose on rats taking an ordinary diet (healthy model): serum insulin and blood glucose", "type": "in vivo, rat", "conditions": "for Serum insulin level / Blood glucose level: average ± SD; for Serum insulin level: Group A control 4.34 ± 0.51; for Blood glucose level: Group A control 207 ± 11", "protocol": "Feed containing 1-kestose in such a way as to be 0, 0.5, 1, 2.5 and 5 mass % was prepared by CLEA Japan, Inc. on commission. The composition of feed is shown below.\nCornstarch: 39.7486, milk casein: 20, pregelatinized cornstarch: 13.2, granulated sugar or granulated sugar and 1-kestose: 10, purified soybean oil: 7, cellulose powder: 5, mineral mix: 3.5, vitamin mix: 1, L-cystine: 0.3, choline bitartrate: 0.25, tertiary butyl hydroquinone: 0.0014.\nForty SD rats (Japan SLC, Inc.) were divided into 5 groups of 8 rats each to be Groups A to E. Group A and Groups B to E had discretionary intake of feed without 1-kestose and 1-kestose-containing feed, respectively, while bred for 30 days. Breeding conditions included a temperature of 23±1° C., a light period of 12 hours (8:00 to 20:00) and a dark period of 12 hours (20:00 to 8:00).\nThe obtained serum was measured for an insulin level by ELISA technique and a glucose level by glucose oxidase method, to calculate an average value and a standard deviation by each Group. Additionally, serum insulin levels and blood glucose levels are shown in FIG. 1 and FIG. 2 in bar graphs, respectively."}, "[2]": {"system": "LETO (Long-Evans Tokushima Otsuka) rats", "assay": "Effect of 1-kestose on LETO control rats of the type 2 diabetes model: plasma insulin and blood glucose", "type": "in vivo, rat", "protocol": "(§1) OLETF (Otsuka Long-Evans Tokushima Fatty) rats (Japan SLC, Inc.), which are model animals with pathological conditions of type 2 diabetes, and LETO (Long-Evans Tokushima Otsuka) rats (Japan SLC, Inc.), which are the controls thereof, were prepared. The LETO rats were divided into 2 groups of 5 rats each to be Group A and Group B. Further, the OLETF rats were divided into 3 groups of 8 rats each to be Group C, Group D, and Group E. During the breeding period, Group A and Group C had discretionary intake of “feed without 1-kestose” described in Example 1 (1), Group B and Group E had discretionary intake of “feed containing 5 mass % of 1-kestose”, and Group D had discretionary intake of “feed containing 1 mass % of 1-kestose”. The rats were bred for 14 days with the same breeding conditions as Example 1 (1)\n(§2) For the rats of each Group of this Example 3 (1), plasma insulin levels and blood glucose levels were measured by the method described in Example 1 (2) to calculate an average value and a standard deviation by each Group. Additionally, plasma insulin levels and blood glucose levels are shown in FIG. 6 and FIG. 7 in bar graphs, respectively."}, "SD rats [3]": {"system": "SD rats", "assay": "Effects of 1-kestose on rats taking a high-fat diet (obese model) or ordinary diet: plasma insulin, blood glucose, body weight", "type": "in vivo, rat", "conditions": "for Plasma insulin level / Blood glucose level: 135 days; for Plasma insulin level / Blood glucose level / Body weight: average ± SD; for Body weight: end of breeding period (19 weeks)", "protocol": "SD rats (Japan SLC, Inc.) were divided into 4 groups of 6 to 8 rats each to be Group A to Group D. During the breeding period, Group A and Group C had discretionary intake of tap water. On the other hand, Group B and Group D were allowed to take 1-kestose by providing discretionary intake of a solution in which 1-kestose was dissolved in purified water in such a way as to be 2 mass %. Additionally, Group A and Group B had discretionary intake of […] (Research Diets, Inc.) as an “ordinary diet”, and Group C and Group D had discretionary intake of D12492 (Research Diets, Inc.) as a “high-fat diet”. The rats were bred for 135 days with the same breeding conditions as Example 1 (1) except feed. The composition of feed is shown below.\nCasein: 200, L-cystine: 3, Cornstarch: 506.2, maltodextrin 10: 125, sucrose: 68.8, cellulose BW200: 50, purified soybean oil: 25, lard: 20, mineral mix S10026: 10, dicalcium phosphate: 13, calcium carbonate: 5.5, potassium citrate monohydrate: 16.5, vitamin mix V10001: 10, choline bitartrate: 2, yellow synthetic dye (FD&C Yellow Dye #1): 0.04, blue synthetic dye (FD&C Blue Dye #1): 0.01.\nCasein: 200, L-cystine: 3, maltodextrin 10: 125, sucrose: 68.8, cellulose BW200: 50, purified soybean oil: 25, lard: 245, mineral mix S10026: 10, dicalcium phosphate: 13, calcium carbonate: 5.5, potassium citrate monohydrate: 16.5, vitamin mix V10001: 10, choline bitartrate: 2, blue synthetic dye (FD&C Blue Dye #1): 0.05.\nAs the average intake amount of water taken by a rat per day was about 22 mL/rat.\nThe rats of each Group in this Example 2 (1) were measured for body weight every week during the breeding period, and an average value by each Group was calculated and expressed in line graphs. Note that the body weights (g) of each Group at the start of breeding period were 272±5 for Group A, 268±6 for Group B, 272±3 for Group C, and 269±3 for Group D.\nFurther, plasma insulin levels and blood glucose levels were measured by the method described in Example 1 (2) to calculate an average value and a standard deviation by each Group. […] Additionally, insulin levels and glucose levels are shown in FIG. 4 and FIG. 5 in bar graphs, respectively."}, "[4]": {"conditions": "Food processing and ingredients, Vol. 49, No. 12, p. 9, 2014; cited from earlier work"}, "[5]": {"system": "OLETF (Otsuka Long-Evans Tokushima Fatty) rats", "assay": "Effect of 1-kestose on type 2 diabetes model OLETF rats: plasma insulin and blood glucose", "type": "in vivo, rat", "conditions": "for Plasma insulin level / Blood glucose level: 14 days, average ± SD; for Plasma insulin level: Group C control 3.36 ± 0.53; for Blood glucose level: Group C control 151 ± 6", "protocol": "as §1, §2"}, "[6]": {"conditions": "Group C, feed containing 1% of 1-kestose (0.54 g/kg body weight daily), 30 days"}, "[7]": {"conditions": "Group D, feed containing 2.5% of 1-kestose (1.34 g/kg body weight daily), 30 days"}, "[8]": {"conditions": "Group E, feed containing 5% of 1-kestose (2.71 g/kg body weight daily), 30 days"}, "[9]": {"conditions": "OLETF rats, Group D, feed containing 1% of 1-kestose (table prints 1.34 g/kg body weight daily)"}, "[10]": {"conditions": "OLETF rats, Group E, feed containing 5% of 1-kestose (2.71 g/kg body weight daily)"}}, "data": [{"smiles": "OC[C@H]1O[C@@](CO)(OC[C@@]2(O[C@H]3O[C@H](CO)[C@@H](O)[C@H](O)[C@H]3O)O[C@H](CO)[C@@H](O)[C@@H]2O)[C@@H](O)[C@@H]1O", "note": "[1-kestose]", "values": [{"measurement": "Serum insulin level", "setting": "SD rats [1]; Group B, feed containing 0.5% of 1-kestose (0.27 g/kg body weight daily), 30 days, n=8", "result": "3.04 ± 0.38", "unit": "ng/mL"}, {"measurement": "Blood glucose level", "setting": "SD rats [1]; Group B, feed containing 0.5% of 1-kestose (0.27 g/kg body weight daily), 30 days", "result": "202 ± 10", "unit": "mg/dL"}, {"measurement": "Serum insulin level", "setting": "SD rats [1]; [6]", "result": "3.08 ± 0.31", "unit": "ng/mL"}, {"measurement": "Blood glucose level", "setting": "SD rats [1]; [6]", "result": "192 ± 11", "unit": "mg/dL"}, {"measurement": "Serum insulin level", "setting": "SD rats [1]; [7]", "result": "2.56 ± 0.31", "unit": "ng/mL"}, {"measurement": "Blood glucose level", "setting": "SD rats [1]; [7]", "result": "202 ± 4", "unit": "mg/dL"}, {"measurement": "Serum insulin level", "setting": "SD rats [1]; [8]", "result": "2.01 ± 0.24", "unit": "ng/mL"}, {"measurement": "Blood glucose level", "setting": "SD rats [1]; [8]", "result": "188 ± 7", "unit": "mg/dL"}, {"measurement": "Blood glucose levels compared with rats not taking 1-kestose", "setting": "SD rats [1]; Groups A to E, irrelevant to the intake amount", "result": "equivalent blood glucose levels"}, {"measurement": "Serum insulin levels compared with Group A (rats not taking 1-kestose)", "setting": "SD rats [1]; Groups B, C, D and E (0.5 to 5% 1-kestose in feed) vs Group A, 30 days", "result": "significantly lower"}, {"measurement": "Plasma insulin levels compared with LETO rats not taking 1-kestose", "setting": "[2]; Group B vs Group A", "result": "lower plasma insulin levels"}, {"measurement": "Plasma insulin level", "setting": "[2]; LETO rats, Group B, feed containing 5% of 1-kestose (2.71 g/kg body weight daily), 14 days, average ± SD, Group A control 1.49 ± 0.19", "result": "1.08 ± 0.09", "unit": "ng/mL"}, {"measurement": "Blood glucose level", "setting": "[2]; LETO rats, Group B, feed containing 5% of 1-kestose (2.71 g/kg body weight daily), 14 days, average ± SD, Group A control 146 ± 3", "result": "144 ± 2", "unit": "mg/dL"}, {"measurement": "Blood glucose levels compared among groups", "setting": "[2]; LETO rats, regardless of whether or not 1-kestose was taken", "result": "equivalent blood glucose levels"}, {"measurement": "Blood glucose levels compared among groups", "setting": "SD rats [3]; Groups A to D, regardless of whether or not 1-kestose was taken", "result": "equivalent blood glucose levels"}, {"measurement": "Plasma insulin levels of rats taking the high-fat diet and 1-kestose compared with rats taking the ordinary diet", "setting": "SD rats [3]; High-fat diet, Group D vs Groups A and B, Group C notably higher", "result": "equivalent plasma insulin levels"}, {"measurement": "Plasma insulin level", "setting": "SD rats [3]; High-fat diet, Group D, 2 mass % 1-kestose solution (0.44 g/rat daily), Group C tap water 6.65 ± 1.03", "result": "2.28 ± 0.63", "unit": "ng/mL"}, {"measurement": "Blood glucose level", "setting": "SD rats [3]; High-fat diet, Group D, 2 mass % 1-kestose solution (0.44 g/rat daily), Group C tap water 155 ± 4", "result": "147 ± 2", "unit": "mg/dL"}, {"measurement": "Body weight", "setting": "SD rats [3]; High-fat diet, Group D, 2 mass % 1-kestose solution (0.44 g/rat daily), Group C tap water 764 ± 32", "result": "718 ± 21", "unit": "g"}, {"measurement": "Blood glucose level", "setting": "SD rats [3]; Ordinary diet, Group B, 2 mass % 1-kestose solution (0.44 g/rat daily), Group A tap water 147 ± 5", "result": "143 ± 3", "unit": "mg/dL"}, {"measurement": "Body weight", "setting": "SD rats [3]; Ordinary diet, Group B, 2 mass % 1-kestose solution (0.44 g/rat daily), Group A tap water 665 ± 14", "result": "679 ± 22", "unit": "g"}, {"measurement": "Plasma insulin level", "setting": "SD rats [3]; Ordinary diet, Group B, 2 mass % 1-kestose solution as drinking water (0.44 g/rat daily), Group A tap water 2.48 ± 0.52", "result": "2.30 ± 0.42", "unit": "ng/mL"}, {"measurement": "Toxicity in mutagenicity test, acute toxicity test, subchronic toxicity test and chronic toxicity test", "setting": "[4]", "result": "not recognized to have toxicity"}, {"measurement": "Plasma insulin levels compared with OLETF rats not taking 1-kestose", "setting": "[5]; Group C>Group D>Group E", "result": "lower plasma insulin levels"}, {"measurement": "Plasma insulin level", "setting": "[5]; [9]", "result": "3.04 ± 0.69", "unit": "ng/mL"}, {"measurement": "Blood glucose level", "setting": "[5]; [9]", "result": "163 ± 4", "unit": "mg/dL"}, {"measurement": "Plasma insulin level", "setting": "[5]; [10]", "result": "2.53 ± 0.29", "unit": "ng/mL"}, {"measurement": "Blood glucose level", "setting": "[5]; [10]", "result": "157 ± 3", "unit": "mg/dL"}, {"measurement": "Blood glucose levels compared among groups", "setting": "[5]; OLETF rats, regardless of whether or not 1-kestose was taken", "result": "equivalent blood glucose levels"}]}]}
